PubChem BioAssay (NCI)
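Where inhibition never reached the appropriate level, the endpoint shown equals the highest concentration tested. Otherwise, values were interpolated linearly from a five-concentration, 48-hour dose response in 96-well plates. At the GI50, growth is halved. TGI: total growth inhibition.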

Key:
Assay in all cases: NCI anticancer screen, dose series, 48 h
SF-539 CNS = system: SF-539 CNS
SN12C renal = system: SN12C renal
EKVX NSCLC = system: EKVX NSCLC
CCRF-CEM leukemia = system: CCRF-CEM leukemia
MDA-MB-231 breast = system: MDA-MB-231 breast
SNB-75 CNS = system: SNB-75 CNS
HL-60(TB) leukemia = system: HL-60(TB) leukemia
COLO 205 colon = system: COLO 205 colon

Nc1nc(N)c2cc(S(=O)(=O)c3cccc(C(F)(F)F)c3)ccc2n1
GI50 (SF-539 CNS): 6.63 µM | TGI (SF-539 CNS): > 100 µM | GI50 (SN12C renal): 6.34 µM | TGI (SN12C renal): > 100 µM | GI50 (EKVX NSCLC): 3.32 µM | TGI (EKVX NSCLC): > 100 µM | GI50 (CCRF-CEM leukemia): 3.41 µM | TGI (CCRF-CEM leukemia): > 100 µM | GI50 (MDA-MB-231 breast): 9.75 µM | TGI (MDA-MB-231 breast): > 100 µM | GI50 (SNB-75 CNS): 12.9 µM | TGI (SNB-75 CNS): 39.8 µM

N#CSc1c[nH]c2ccc(/C=C/C(=O)/C=C(O)/C=C/c3ccc4[nH]cc(SC#N)c4c3)cc12
GI50 (SF-539 CNS): 2.87 µM | TGI (SF-539 CNS): 10.6 µM | GI50 (SN12C renal): 1.92 µM | TGI (SN12C renal): 10.9 µM | GI50 (HL-60(TB) leukemia): 0.902 µM | TGI (HL-60(TB) leukemia): 4.34 µM | GI50 (EKVX NSCLC): 1.97 µM | TGI (EKVX NSCLC): 10.7 µM | GI50 (CCRF-CEM leukemia): 0.612 µM | TGI (CCRF-CEM leukemia): 8.08 µM | GI50 (MDA-MB-231 breast): 1.72 µM | TGI (MDA-MB-231 breast): 3.61 µM | GI50 (SNB-75 CNS): 3.1 µM | TGI (SNB-75 CNS): 21.4 µM | GI50 (COLO 205 colon): 1.55 µM | TGI (COLO 205 colon): 3.7 µM

CC(C)(C)CNCCO
TGI (SF-539 CNS): > 100 µM | TGI (SN12C renal): > 100 µM | TGI (HL-60(TB) leukemia): > 100 µM | TGI (EKVX NSCLC): > 100 µM | TGI (CCRF-CEM leukemia): > 100 µM | TGI (MDA-MB-231 breast): > 100 µM | TGI (SNB-75 CNS): > 100 µM | TGI (COLO 205 colon): > 100 µM

Clc1ccc2c(NC3CCC(NC4CCCCC4)CC3)ccnc2c1 (stereo unspecified)
GI50 (SF-539 CNS): 2.03 µM | TGI (SF-539 CNS): 4.13 µM | GI50 (SN12C renal): 14.7 µM | TGI (SN12C renal): 68.3 µM | GI50 (EKVX NSCLC): 4.55 µM | TGI (EKVX NSCLC): 43 µM | GI50 (MDA-MB-231 breast): 5.94 µM | TGI (MDA-MB-231 breast): 23.8 µM | GI50 (SNB-75 CNS): 4.63 µM | TGI (SNB-75 CNS): 19.4 µM | GI50 (COLO 205 colon): 1.65 µM | TGI (COLO 205 colon): 3.2 µM

Clc1cccc(-c2cc(-c3ccc4c(c3)OCCO4)[nH]n2)c1
GI50 (SF-539 CNS): 6.31 µM | TGI (SF-539 CNS): 36.1 µM | GI50 (SN12C renal): 5.38 µM | TGI (SN12C renal): 40.1 µM | GI50 (HL-60(TB) leukemia): 4.65 µM | TGI (HL-60(TB) leukemia): 53.6 µM | GI50 (EKVX NSCLC): 11.5 µM | TGI (EKVX NSCLC): 45.6 µM | GI50 (CCRF-CEM leukemia): 6.99 µM | TGI (CCRF-CEM leukemia): 182 µM | GI50 (MDA-MB-231 breast): 7.75 µM | TGI (MDA-MB-231 breast): 47.6 µM | GI50 (SNB-75 CNS): 2.24 µM | TGI (SNB-75 CNS): 34.8 µM | GI50 (COLO 205 colon): 1.42 µM | TGI (COLO 205 colon): 30.1 µM

CCCCCOC(=O)c1c(C)[nH]c(/C=C2\N=C(c3ccc[nH]3)C=C2OC)c1C
GI50 (SF-539 CNS): 0.0306 µM | TGI (SF-539 CNS): 0.725 µM | GI50 (SN12C renal): 0.0482 µM | TGI (SN12C renal): 1.73 µM | GI50 (HL-60(TB) leukemia): 0.0263 µM | TGI (HL-60(TB) leukemia): 0.281 µM | GI50 (CCRF-CEM leukemia): 0.0194 µM | TGI (CCRF-CEM leukemia): 1.99 µM | GI50 (MDA-MB-231 breast): < 0.0162 µM | TGI (MDA-MB-231 breast): 0.216 µM | GI50 (SNB-75 CNS): 0.0429 µM | TGI (SNB-75 CNS): 0.619 µM | GI50 (COLO 205 colon): 0.0331 µM | TGI (COLO 205 colon): 1.04 µM

COc1ccc(CC(C)NCC(O)c2ccc(O)c(NC=O)c2)cc1 (stereo unspecified)
TGI (SF-539 CNS): > 100 µM | TGI (SN12C renal): > 100 µM | TGI (EKVX NSCLC): > 100 µM | TGI (CCRF-CEM leukemia): > 100 µM | TGI (MDA-MB-231 breast): > 100 µM | TGI (SNB-75 CNS): > 100 µM | TGI (COLO 205 colon): > 100 µM

O=c1oc2ccccc2cc1P(=O)(O)O
TGI (SF-539 CNS): > 100 µM | TGI (SN12C renal): > 100 µM | TGI (HL-60(TB) leukemia): > 100 µM | TGI (EKVX NSCLC): > 100 µM | TGI (CCRF-CEM leukemia): > 100 µM | TGI (MDA-MB-231 breast): > 100 µM | TGI (SNB-75 CNS): > 100 µM | TGI (COLO 205 colon): > 100 µM

CC(C)(Sc1cc(C(C)(C)C)c(O)c(C(C)(C)C)c1)Sc1cc(C(C)(C)C)c(O)c(C(C)(C)C)c1
TGI (SF-539 CNS): > 100 µM | TGI (SN12C renal): > 100 µM | TGI (HL-60(TB) leukemia): 3.08 µM | TGI (EKVX NSCLC): > 100 µM | TGI (CCRF-CEM leukemia): > 100 µM | TGI (MDA-MB-231 breast): > 100 µM | TGI (SNB-75 CNS): > 100 µM | TGI (COLO 205 colon): > 100 µM
